# Active and inactive are the calls of the source.
# How the values were obtained:
# [1] = cells
# [2] = molecular target: Major prion protein (Homo sapiens, UniProt P04156); type: functional, cell-based
# [3] = molecular target: Genome polyprotein (Hepatitis C virus, UniProt Q2Q167); experiment: HCV core protein dimerization inhibitors, dose response, biochemical, TR-FRET (AID 2159); set-up: species or system Hepacivirus hominis;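 note: blocks dimerization of HCV core protein measured by TR-FRET between tagged core106 pairs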
# [4] = molecular target: Mitogen-activated protein kinase 10 (Homo sapiens, UniProt P53779); experiment: Dose response biochemical screening assay for inhibitors of c-Jun N-Terminal Kinase 3 (JNK3). [Related pubchem assays: 746 ]
# [5] = molecular target: T1, Estrogen receptor beta (Homo sapiens, UniProt Q92731); experiment: ERβ–SRC-3 coactivator interaction inhibitors, confirmation, orthogonal assay, biochemical, ELISA, streptavidin-HRP readout (AID 1060)
# [6] = molecular target: T1, Estrogen receptor beta
# [7] = system: Danio rerio; experiment: In Vivo Angiogenesis Dose-Response Confirmation. [Related pubchem assays: 732 (Assay preceding this confirmatory assay.)]; type: functional, organism-based
# [8] = molecular target: Cytochrome P450 2D6 (Homo sapiens, UniProt P10635); experiment: qHTS Assay for Inhibitors and Substrates of Cytochrome P450 2D6. [Related pubchem assays: 410 ]; type: ADME; details: read-out: Potency
# [9] = molecular target: Cytochrome P450 3A4 (Homo sapiens, UniProt P08684); details: Potency;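 note: confirmatory qHTS run detecting inhibitors and substrates of CYP3A4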
# [10] = molecular target: Cytochrome P450 2C19 (Homo sapiens, UniProt P33261); experiment: qHTS Assay for Inhibitors and Substrates of Cytochrome P450 2C19. [Related pubchem assays: 410 ]; type: ADME; details: read-out: Potency
# [11] = molecular target: Glucose-6-phosphate 1-dehydrogenase (Homo sapiens, UniProt P11413); experiment: human G6PD enzyme inhibitors, dose response, selectivity assay for P. falciparum G6PD inhibitor project, biochemical, fluorescence (AID 504792); type: functional
# [12] = molecular target: Cytochrome P450 2C9 (Homo sapiens, UniProt P11712)
# [13] = system: Streptococcus sp. 'group A'; experiment: growth inhibition of control SK(-) GAS strain, dose response, counter-screen for streptokinase expression inhibitor project, luminescence, kanamycin, BacTiterGlo, confirmation (AID 1900); type: functional, organism-based
# [14] = Vero cell cytotoxicity, dose response, cytotoxicity control for Vif-APOBEC3G degradation inhibitor project, Vero cells (AID 1117358); type: functional; details: Human immunodeficiency virus 1, Vero
# [15] = molecular target: T2, Protein RecA (Mycobacterium tuberculosis, UniProt P9WHJ3); experiment: Fluorescence Cell-Free Homogeneous Dose Retest to Identify Inhibitors of RecA-Intein Splicing Activity. [Related pubchem assays (depositor defined):AID2097, AID2223, AID489010, AID492950]; type: functional
# T2 sequence (P9WHJ3 whole entry): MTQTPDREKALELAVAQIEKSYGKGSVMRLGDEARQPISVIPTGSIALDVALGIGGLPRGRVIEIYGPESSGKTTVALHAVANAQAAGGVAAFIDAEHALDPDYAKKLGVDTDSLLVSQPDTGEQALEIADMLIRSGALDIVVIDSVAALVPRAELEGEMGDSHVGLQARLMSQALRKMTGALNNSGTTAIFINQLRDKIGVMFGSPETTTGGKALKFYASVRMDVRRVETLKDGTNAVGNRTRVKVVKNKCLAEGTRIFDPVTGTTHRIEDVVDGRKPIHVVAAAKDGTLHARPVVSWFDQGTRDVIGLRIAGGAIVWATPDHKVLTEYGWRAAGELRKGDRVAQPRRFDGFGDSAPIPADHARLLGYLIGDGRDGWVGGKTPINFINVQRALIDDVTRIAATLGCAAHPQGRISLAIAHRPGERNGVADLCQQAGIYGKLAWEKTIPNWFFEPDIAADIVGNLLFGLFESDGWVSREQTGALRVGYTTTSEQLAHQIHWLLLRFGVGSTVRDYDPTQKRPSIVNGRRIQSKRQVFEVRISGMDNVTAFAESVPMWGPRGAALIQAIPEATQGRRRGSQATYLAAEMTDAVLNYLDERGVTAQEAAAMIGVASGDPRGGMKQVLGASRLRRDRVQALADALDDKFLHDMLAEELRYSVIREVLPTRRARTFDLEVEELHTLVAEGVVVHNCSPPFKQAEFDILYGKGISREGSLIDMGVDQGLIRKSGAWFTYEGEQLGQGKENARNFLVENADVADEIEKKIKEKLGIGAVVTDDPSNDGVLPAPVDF
# [16] = molecular target: Beta Lactamase (Pseudomonas aeruginosa, UniProt Q932Y6); experiment: beta-lactamase reporter inhibitor potency, dose response, artefact control for TLR9-MyD88 binding inhibitor project, BLA reporter cells, FRET fluorescence (AID 588341); type: cell-based;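 note: cell based assay in CHO-K1 cells stably expressing beta-lactamase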
# [17] = molecular target: Genome polyprotein (dengue virus type 2, UniProt P29990); experiment: Dengue-2 NS5 methyltransferase inhibitors, primary screen, biochemical, confirmation dose response (AID 588689); type: functional
# [18] = growth suppression of beta-catenin-knockout colon cells, dose response, cell-based, HCT116, human colon tumor (AID 1045); type: functional;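 note: HCT116 colon tumor cells with beta catenin knocked out; cells exposed to compound for 60 hours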
# [19] = THP-1 cell cytotoxicity, dose response, cytotoxicity control for Vif-APOBEC3G degradation inhibitor project, THP-1 cells (AID 1117359); type: functional; details: Human immunodeficiency virus 1, THP-1
# [20] = HepG2 cell cytotoxicity, dose response, cytotoxicity control for Shn3 inhibitor project, CellTiter-Glo, cherry-picked (AID 624134); type: functional, cell-based
# [21] = system: CHO; experiment: cytotoxicity in TLR9-MyD88 CHO cells, dose response, cytotoxicity control for TLR9-MyD88 binding inhibitor project, cell-based, luminescence (AID 588339); type: functional, hamster; details: Cricetulus griseus;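 note: CHO cells stably coexpressing TLR9 and MyD88 fusions from primary screen; compound exposure lasted 48 hours before viability readout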
# [22] = molecular target: Large T antigen (Simian virus 40, UniProt P03070); type: functional, Betapolyomavirus macacae;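 note: Confirmatory-stage PubChem screen for compounds that inhibit SV40 T antigen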
# [23] = Shn3 3'UTR reporter inhibitors, dose response, cell-based, Clone20 osteoblasts, firefly luciferase, cherry-picked (AID 624132); type: functional;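 note: firefly luciferase luminescence from reporter carrying the Shn3 3'UTR in osteoblasts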
# [24] = control 3'UTR Renilla luciferase suppression, dose response, counter-screen for Shn3 inhibitor project, cell-based, Clone20-Shn3RL, cherry-picked (AID 624133); type: functional
# [25] = molecular target: T3, Type-1 angiotensin II receptor (Homo sapiens, UniProt P30556); experiment: AT1 receptor antagonists, dose response, selectivity assay for APJ receptor antagonist project, cell-based, uHTS hits (AID 463214); type: functional;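 note: antagonist potency against angiotensin II stimulated AT1 response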
# T3 sequence (P30556 whole entry): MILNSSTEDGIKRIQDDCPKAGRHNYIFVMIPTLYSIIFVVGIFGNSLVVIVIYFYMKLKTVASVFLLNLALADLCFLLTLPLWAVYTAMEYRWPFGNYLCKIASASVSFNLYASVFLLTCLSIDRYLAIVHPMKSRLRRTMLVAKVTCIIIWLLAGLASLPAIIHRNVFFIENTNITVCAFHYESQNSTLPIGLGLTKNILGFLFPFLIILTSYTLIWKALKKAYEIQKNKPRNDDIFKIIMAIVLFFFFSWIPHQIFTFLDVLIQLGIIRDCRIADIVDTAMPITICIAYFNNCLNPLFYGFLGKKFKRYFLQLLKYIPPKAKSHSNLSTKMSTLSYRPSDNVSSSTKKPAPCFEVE
# [26] = molecular target: Induced myeloid leukemia cell differentiation protein Mcl-1 (Homo sapiens, UniProt Q07820); type: functional
# [27] = system: Streptococcus; experiment: Group A Streptococcus viability loss, dose response, counter-screen for streptokinase expression inhibitor project, luminescence, BacTiterGlo (AID 1915); type: functional, organism-based;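 note: potency for reduction of bacterial viability or growth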
# [28] = molecular target: Beta-galactosidase (Escherichia coli, UniProt Q8VNN2); experiment: PubChem AID 485352; type: functional
# [29] = system: Vero; experiment: Vero cell cytotoxicity, cytotoxicity control for flavivirus capping enzyme inhibitors (AID 588742); type: functional; details: Chlorocebus sabaeus
# [30] = molecular target: T4, Replicative DNA helicase DnaB (Mycobacterium tuberculosis, UniProt P9WMR3); experiment: DnaB intein splicing inhibitors, dose response, biochemical, cell-free fluorescence (AID 449749); type: functional
# T4 sequence (P9WMR3 whole entry): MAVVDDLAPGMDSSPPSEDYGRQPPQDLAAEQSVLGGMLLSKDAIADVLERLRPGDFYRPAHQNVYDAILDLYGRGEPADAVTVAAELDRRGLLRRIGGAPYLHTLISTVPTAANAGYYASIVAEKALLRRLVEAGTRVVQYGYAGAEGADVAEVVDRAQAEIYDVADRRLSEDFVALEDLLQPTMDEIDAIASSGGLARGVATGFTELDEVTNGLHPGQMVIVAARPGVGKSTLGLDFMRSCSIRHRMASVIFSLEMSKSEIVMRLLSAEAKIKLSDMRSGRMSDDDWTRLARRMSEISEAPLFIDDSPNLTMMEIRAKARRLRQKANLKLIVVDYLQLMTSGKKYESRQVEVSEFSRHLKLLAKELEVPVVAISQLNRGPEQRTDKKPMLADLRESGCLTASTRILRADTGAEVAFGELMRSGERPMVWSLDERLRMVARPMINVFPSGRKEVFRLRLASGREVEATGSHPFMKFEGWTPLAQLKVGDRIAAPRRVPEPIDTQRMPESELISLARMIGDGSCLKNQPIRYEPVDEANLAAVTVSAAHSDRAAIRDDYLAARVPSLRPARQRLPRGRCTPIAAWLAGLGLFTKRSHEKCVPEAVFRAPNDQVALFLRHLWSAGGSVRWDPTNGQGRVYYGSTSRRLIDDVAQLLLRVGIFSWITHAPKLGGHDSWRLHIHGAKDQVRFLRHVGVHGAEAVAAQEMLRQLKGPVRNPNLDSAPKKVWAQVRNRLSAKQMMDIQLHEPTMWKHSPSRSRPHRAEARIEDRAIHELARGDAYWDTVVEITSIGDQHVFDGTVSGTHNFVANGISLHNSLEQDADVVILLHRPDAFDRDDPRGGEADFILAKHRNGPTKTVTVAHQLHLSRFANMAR
# [31] = molecular target: T5, Streptokinase A (Streptococcus pyogenes serotype M1, UniProt P10520); experiment: S. pyogenes streptokinase expression inhibitors, potency, dose response, plasminogen activation absorbance, OD405 (AID 1914); type: functional, Streptococcus pyogenes M1 GAS;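 note: secreted streptokinase activity via plasminogen activation per viability signal from cell pellet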
# T5 sequence (P10520 whole entry): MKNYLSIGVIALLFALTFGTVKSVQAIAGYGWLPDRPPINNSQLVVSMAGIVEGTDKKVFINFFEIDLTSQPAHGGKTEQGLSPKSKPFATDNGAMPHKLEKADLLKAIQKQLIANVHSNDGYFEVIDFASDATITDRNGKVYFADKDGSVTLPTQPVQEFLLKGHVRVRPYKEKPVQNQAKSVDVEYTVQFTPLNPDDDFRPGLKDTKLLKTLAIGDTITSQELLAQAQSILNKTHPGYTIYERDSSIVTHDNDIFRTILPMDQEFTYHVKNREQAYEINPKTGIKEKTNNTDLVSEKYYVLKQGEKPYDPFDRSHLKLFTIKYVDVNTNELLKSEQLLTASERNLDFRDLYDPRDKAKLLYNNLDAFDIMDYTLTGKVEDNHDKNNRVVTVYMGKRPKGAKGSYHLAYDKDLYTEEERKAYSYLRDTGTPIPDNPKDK
# [32] = growth suppression of PTEN-null colon cells, dose response, cell-based, HCT116 PTEN knockout (AID 1047); type: functional;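 note: HCT116 colon tumor cells with PTEN knocked out; cells exposed to compound for 60 hours before readout; potency for loss of cell viability measured by luminescence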
# [33] = molecular target: T6, Estrogen receptor (Homo sapiens, UniProt P03372);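 note: potency for inhibiting coactivator peptide recruitment to the receptor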
# T6 sequence (P03372 whole entry): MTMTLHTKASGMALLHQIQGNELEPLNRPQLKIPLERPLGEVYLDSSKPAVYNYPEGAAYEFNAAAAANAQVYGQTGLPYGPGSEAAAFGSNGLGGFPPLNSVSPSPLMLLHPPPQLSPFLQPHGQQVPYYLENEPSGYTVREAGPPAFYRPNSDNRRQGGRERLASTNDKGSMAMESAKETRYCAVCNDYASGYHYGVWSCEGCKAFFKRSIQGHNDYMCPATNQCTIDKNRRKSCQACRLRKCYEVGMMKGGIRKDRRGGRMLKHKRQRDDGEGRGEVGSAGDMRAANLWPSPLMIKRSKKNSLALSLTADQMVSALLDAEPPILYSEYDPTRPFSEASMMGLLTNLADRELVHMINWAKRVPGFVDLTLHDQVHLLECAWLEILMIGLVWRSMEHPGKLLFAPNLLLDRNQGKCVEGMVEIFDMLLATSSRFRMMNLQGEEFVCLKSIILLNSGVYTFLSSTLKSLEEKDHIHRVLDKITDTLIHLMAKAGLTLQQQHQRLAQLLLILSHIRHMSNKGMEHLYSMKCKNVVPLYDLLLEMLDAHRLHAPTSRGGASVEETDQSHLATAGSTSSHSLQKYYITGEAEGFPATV
# T1 sequence (Q92731 whole entry): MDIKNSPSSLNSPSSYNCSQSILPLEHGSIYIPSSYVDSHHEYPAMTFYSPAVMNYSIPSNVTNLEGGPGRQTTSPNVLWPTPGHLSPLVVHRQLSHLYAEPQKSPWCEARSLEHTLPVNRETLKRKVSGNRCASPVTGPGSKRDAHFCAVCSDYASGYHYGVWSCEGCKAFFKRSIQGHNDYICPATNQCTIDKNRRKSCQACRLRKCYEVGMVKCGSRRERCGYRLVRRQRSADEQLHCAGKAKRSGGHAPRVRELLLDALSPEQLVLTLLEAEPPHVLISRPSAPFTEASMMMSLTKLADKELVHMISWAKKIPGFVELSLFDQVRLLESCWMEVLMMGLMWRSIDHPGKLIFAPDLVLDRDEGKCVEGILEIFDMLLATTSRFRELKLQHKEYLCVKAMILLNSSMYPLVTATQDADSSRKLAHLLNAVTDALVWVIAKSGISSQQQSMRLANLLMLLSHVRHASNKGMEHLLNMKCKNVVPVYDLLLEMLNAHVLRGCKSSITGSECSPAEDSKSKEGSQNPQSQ
# Chain of Mitogen-activated protein kinase 10 (P53779 whole entry): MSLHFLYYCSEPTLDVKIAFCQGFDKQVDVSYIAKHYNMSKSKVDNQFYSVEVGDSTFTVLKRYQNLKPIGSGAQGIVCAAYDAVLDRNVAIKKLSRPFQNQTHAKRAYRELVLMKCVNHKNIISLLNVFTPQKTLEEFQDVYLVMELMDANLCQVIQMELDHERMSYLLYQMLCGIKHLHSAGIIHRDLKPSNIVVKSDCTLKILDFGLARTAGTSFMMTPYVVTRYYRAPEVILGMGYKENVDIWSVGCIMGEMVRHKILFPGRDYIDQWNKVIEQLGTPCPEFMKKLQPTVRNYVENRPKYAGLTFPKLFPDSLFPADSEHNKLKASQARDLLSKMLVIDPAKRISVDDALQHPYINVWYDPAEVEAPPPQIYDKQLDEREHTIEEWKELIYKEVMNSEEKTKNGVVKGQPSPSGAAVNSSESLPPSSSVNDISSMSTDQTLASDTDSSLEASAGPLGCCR
# Chain of Genome polyprotein (Hepatitis C virus, UniProt Q2Q167) (Q2Q167 whole entry): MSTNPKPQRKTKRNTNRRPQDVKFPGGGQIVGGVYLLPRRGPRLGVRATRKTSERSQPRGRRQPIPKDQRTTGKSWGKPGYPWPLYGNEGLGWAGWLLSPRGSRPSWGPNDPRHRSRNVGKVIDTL
# Chain of Genome polyprotein (dengue virus type 2, UniProt P29990) (P29990 2492-3391 limits assumed): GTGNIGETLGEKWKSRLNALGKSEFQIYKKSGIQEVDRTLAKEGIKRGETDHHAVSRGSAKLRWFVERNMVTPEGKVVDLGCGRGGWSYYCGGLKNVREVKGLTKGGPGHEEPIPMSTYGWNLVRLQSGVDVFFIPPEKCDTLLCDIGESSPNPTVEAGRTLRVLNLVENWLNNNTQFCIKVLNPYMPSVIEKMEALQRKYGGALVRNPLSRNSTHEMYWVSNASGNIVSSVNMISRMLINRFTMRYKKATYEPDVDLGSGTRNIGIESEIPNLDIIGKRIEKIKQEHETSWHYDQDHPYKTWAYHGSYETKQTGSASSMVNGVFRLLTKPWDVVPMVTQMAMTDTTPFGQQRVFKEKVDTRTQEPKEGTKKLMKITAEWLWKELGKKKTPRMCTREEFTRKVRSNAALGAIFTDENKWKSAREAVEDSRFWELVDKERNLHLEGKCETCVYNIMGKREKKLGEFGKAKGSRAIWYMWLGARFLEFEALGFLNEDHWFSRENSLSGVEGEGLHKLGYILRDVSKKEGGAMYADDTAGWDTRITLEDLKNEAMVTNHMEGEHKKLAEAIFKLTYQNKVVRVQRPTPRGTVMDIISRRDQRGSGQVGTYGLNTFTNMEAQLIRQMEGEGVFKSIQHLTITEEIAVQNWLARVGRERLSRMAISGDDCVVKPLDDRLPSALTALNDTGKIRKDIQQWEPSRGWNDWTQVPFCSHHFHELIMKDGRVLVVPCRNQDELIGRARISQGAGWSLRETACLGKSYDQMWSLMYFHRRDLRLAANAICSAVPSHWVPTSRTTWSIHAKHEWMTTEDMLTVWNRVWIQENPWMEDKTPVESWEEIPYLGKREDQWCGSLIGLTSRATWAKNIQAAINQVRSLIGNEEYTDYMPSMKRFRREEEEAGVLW
# Chain of Glucose-6-phosphate 1-dehydrogenase (P11413 whole entry): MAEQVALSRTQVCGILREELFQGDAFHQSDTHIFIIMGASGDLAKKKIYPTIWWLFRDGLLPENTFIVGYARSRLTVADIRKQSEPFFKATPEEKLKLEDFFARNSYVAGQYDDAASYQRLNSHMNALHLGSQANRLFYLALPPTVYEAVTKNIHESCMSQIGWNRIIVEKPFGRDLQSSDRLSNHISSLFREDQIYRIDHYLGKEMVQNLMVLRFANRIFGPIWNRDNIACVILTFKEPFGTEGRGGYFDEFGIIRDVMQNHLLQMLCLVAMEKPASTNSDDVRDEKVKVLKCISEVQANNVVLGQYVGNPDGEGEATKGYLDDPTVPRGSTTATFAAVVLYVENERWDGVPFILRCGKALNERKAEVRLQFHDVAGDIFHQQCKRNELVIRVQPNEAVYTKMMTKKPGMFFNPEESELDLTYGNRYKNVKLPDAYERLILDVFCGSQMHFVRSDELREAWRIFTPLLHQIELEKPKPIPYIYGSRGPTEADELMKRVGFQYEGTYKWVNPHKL
# Chain of Induced myeloid leukemia cell differentiation protein Mcl-1 (Q07820 whole entry): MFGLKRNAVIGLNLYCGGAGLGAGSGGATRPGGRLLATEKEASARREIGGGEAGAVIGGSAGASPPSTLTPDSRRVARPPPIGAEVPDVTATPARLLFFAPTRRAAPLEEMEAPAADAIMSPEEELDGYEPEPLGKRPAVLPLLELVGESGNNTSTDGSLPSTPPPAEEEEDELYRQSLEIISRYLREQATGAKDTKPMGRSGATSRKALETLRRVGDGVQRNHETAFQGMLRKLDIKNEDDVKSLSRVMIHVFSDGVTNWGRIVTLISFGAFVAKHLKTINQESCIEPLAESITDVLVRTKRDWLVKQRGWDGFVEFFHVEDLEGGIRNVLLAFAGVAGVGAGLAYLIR
# Chain of Cytochrome P450 3A4 (P08684 whole entry): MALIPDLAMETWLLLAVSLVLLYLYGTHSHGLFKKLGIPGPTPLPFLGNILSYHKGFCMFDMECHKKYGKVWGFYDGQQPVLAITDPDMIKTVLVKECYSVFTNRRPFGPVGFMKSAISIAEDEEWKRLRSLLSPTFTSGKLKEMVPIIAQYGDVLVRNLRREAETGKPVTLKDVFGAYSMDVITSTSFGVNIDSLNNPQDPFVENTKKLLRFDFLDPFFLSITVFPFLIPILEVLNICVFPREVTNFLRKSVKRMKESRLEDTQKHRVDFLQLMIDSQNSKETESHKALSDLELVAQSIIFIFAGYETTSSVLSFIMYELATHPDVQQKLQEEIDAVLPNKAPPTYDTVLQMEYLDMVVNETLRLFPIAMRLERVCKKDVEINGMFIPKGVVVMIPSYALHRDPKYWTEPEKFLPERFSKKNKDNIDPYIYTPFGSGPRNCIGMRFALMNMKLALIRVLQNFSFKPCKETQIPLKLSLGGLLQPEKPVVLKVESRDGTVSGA
# Chain of Cytochrome P450 2D6 (P10635 whole entry): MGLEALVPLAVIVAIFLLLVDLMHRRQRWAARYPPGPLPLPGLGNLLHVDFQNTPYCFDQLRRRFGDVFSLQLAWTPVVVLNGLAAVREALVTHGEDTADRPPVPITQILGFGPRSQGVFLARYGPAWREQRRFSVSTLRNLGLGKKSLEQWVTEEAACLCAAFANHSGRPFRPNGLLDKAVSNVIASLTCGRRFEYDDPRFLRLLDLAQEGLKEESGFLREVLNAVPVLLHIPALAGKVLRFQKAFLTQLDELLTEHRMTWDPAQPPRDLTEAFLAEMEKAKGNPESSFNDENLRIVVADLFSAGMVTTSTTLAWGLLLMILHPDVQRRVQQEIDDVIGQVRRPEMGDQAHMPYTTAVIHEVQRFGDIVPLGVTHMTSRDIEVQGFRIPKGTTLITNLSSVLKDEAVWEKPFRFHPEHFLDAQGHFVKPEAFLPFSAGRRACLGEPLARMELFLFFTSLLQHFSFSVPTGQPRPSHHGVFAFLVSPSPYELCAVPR
# Chain of Beta-galactosidase (Q8VNN2 whole entry): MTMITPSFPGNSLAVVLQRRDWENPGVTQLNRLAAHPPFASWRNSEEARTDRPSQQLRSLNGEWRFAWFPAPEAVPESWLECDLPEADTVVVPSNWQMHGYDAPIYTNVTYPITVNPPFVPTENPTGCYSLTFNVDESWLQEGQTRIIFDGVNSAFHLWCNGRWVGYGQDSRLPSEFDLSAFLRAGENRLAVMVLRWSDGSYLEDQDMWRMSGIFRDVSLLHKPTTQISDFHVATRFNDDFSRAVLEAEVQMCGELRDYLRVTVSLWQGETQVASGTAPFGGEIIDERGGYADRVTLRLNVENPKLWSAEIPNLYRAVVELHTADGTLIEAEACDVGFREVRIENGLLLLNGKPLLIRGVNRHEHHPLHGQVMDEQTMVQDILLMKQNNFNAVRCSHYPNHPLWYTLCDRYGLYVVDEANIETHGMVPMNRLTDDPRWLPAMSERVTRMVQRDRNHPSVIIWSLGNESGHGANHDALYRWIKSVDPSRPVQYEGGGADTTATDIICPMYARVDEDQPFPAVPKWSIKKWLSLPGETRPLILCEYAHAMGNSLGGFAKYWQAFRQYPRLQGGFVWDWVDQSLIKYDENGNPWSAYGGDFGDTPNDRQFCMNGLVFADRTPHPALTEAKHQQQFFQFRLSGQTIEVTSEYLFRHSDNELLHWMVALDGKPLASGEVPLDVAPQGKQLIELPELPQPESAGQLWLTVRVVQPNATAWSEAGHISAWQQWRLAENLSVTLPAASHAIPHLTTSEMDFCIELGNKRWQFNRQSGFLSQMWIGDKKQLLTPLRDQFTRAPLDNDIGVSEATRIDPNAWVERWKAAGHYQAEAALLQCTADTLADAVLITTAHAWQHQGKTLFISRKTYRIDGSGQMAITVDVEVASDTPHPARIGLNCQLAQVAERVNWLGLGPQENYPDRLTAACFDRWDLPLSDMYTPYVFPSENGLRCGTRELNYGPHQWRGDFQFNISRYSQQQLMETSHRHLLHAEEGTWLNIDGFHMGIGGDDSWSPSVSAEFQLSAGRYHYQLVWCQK
smiles,measurement,setting,value
CCOC(=O)c1sc(NC(=S)NC(=O)C2CCCC2)cc1C,IC50,[1],> 138 µM (inactive)
same,IC50,[2],5.29 µM (active)
same,IC50,[3],> 49.8 µM (not active)
Oc1c2nc3cccc(Cl)c3c-2ncn1Cc1ccncc1,IC50,[4],> 93.1 µM (not active)
c1ccc(Cc2nnc3sc(-c4ccco4)nn23)cc1,IC50,[5],15.2 µM (not active)
same,IC50,[6],11.4 µM (active)
O=C1Nc2ccccc2/C1=C1/Nc2ccc(Br)cc2/C1=N\OCCN1CCNCC1,IC50,[7],> 30 µM (not active)
COC(=O)N1CCc2cc(OC)c(OC)cc2C1Cc1ccc(OC)cc1 (configuration not stated),AC50,[8],3.16 µM (inconclusive)
same,AC50,[9],3.98 µM (inconclusive)
same,AC50,[10],3.98 µM (inconclusive)
O=[N+]([O-])c1c(NCCO)cc(Sc2nc3ccccc3s2)c2nonc12,IC50,[11],> 80 µM (inactive)
same,AC50,[12],0.631 µM (inconclusive)
same,EC50,[13],2.73 µM (active)
same,CC50,[14],> 40 µM (active)
same,EC50,[15],0.722 µM (active)
same,IC50,[16],9.17 µM (active)
same,IC50,[17],75.8 µM (active)
same,EC50,[18],10.7 µM (active)
same,CC50,[19],22.9 µM (active)
same,AC50,[20],32.1 µM (active)
same,IC50,[21],1.94 µM (active)
same,IC50,[22],21.2 µM (active)
same,AC50,[23],1.64 µM (active)
same,AC50,[24],10.7 µM (active)
same,IC50,[25],1.9 µM (active)
same,IC50,[26],11.1 µM (not active)
same,EC50,[27],3.39 µM (active)
same,EC50,[28],> 40 µM (inactive)
same,CC50,[29],32.9 µM (active)
same,AC50,[30],1.05 µM (active)
same,EC50,[31],> 150 µM (not active)
same,EC50,[32],11.1 µM (active)
ONC1c2cc(Cl)ccc2-c2c(Cl)cc(Cl)cc21 (configuration not stated),IC50,[7],< 0.3 µM (not active)
c1ccc(-c2onc3cc4c(cc23)OCCO4)cc1,IC50,[4],50.1 µM (not active)
O=C(CSc1nc2scc(-c3ccco3)c2c(=O)n1-c1ccccc1)NCC1CCCO1 (configuration not stated),IC50,[5],102 µM (not active)
same,IC50,[6],22.1 µM (active)
same,IC50,[33],30.1 µM (not active)
